Ends that are not written are not given here.

The results in this text go back to US10221227B2, “Peptide for promoting osteogenic differentiation or vascularization and use thereof” (INDUSTRY FOUNDATION OF CHONNAM NATIONAL UNIVERSITY, priority 2015, dated 2019).

One experiment concerns mesenchymal stem cells. The experiment is described as follows: Measurement of mineralization by Alizarin Red staining. It counts as cell-based, Balb/c mouse. Particulars: cells added with 1 μg/μL of BFP 5; tested at 0.01, 0.1, 1 and 10 μg/μL, osteogenic differentiation medium, two additional days. The procedure:
Mesenchymal stem cells (1×10^4), which were cloned from Balb/c mouse bone marrow stromal cells) were aliquoted into 10% FBS-containing DMEM and cultured in an atmosphere (about 37° C., 5% CO2) for 3 days, and thereby the mesenchymal stem cells to be used as osteoblasts in the present experiment were prepared. Osteogenic differentiation medium (hereinafter, “ODM”) consists of DMEM which contains 50 μg/mL of ascorbic acid, 10^−8 M dexamethasone, 10 mM β-glycerophosphate, etc.
The differentiation of the mesenchymal stem cells into osteoblasts causes calcium accumulation. Here, the degree of calcium accumulation refers to the degree of differentiation of osteoblasts, and the degree of accumulation of calcium ions can be confirmed by observing the degree of staining of the cells that are stained red, via Alizarin Red staining. In this regard, the mineralization was measured via Alizarin Red staining. That is, as the differentiation into osteoblasts are promoted there are more regions that can be stained by Alizarin Red. Accordingly, the degree of osteogenic differentiation can be confirmed by adding Alizarin Red to the osteogenic differentiation medium, treating with the peptide of SEQ ID NO: 1 (BFP 5), and observing the degree of Alizarin Red staining. […]

Experiment [1] has as its system Runx2, alkaline phosphatase, Osteopontin, collagen type 1, DLX5, and Osterix. In words: Expression of osteoblast-specific genes under a fluorescent microscope using antibodies (FIG. 5). The experiment is classed as cell-based. Particulars: cells treated with BFP 5, fluorescent microscope using antibodies. An excerpt:
An osteoblast-specific protein is expressed upon differentiation into osteoblasts. When the antibody to the protein was reacted to cells and the degree of binding was confirmed by a fluorescent microscope.

The test system of experiment [2] is alkaline phosphatase and Osterix. In words: Level of proteins expressed in osteoblasts (FIG. 6). The experiment is classed as cell-based. Particulars: FIG. 6, protein level.
A further experiment relates to Osterix. In words: Osterix expression at varied concentrations of BFP 5 (FIG. 8). The experiment is classed as cell-based.
A further experiment relates to VEGF. In words: Effect on vascularization: expression of VEGF (FIG. 9). It counts as cell-based. The note with it: cells treated with BFP 5; alongside VEGF, FGF, SDF-1a, SDF-1g.
A further experiment concerns alkaline phosphatase. Particulars: at 1 μg/μL of BFP 5; RT-PCR / enzyme activity kit.

For the sequence “PPRACPTARALCEIR (cysteine pairing not given here) [SDF-1d-derived peptide consisting of 15 amino acids, named bone forming peptide 5]”, in the experiment with mesenchymal stem cells, the “Alizarin Red staining (mineralization accumulated via osteogenic differentiation)” value is given as “strongest staining”. In addition, in experiment [1], the “expression of DLX5” value is “strongly expressed”, the “expression of Osteopontin” value is “strongly expressed”, the “expression of Osterix” value is reported as “strongly expressed” and the “expression of Runx2” value was “strongly expressed”. In addition, in experiment [1], the “expression of alkaline phosphatase” value was “strongly expressed” and the “expression of collagen type 1” value is “strongly expressed”. For the same sequence, in experiment [2], the “Osterix protein expressed in osteoblasts” value is “strongly expressed” and the “alkaline phosphatase protein expressed in osteoblasts” value is “strongly expressed”. Besides, in the experiment on Osterix, the “concentration of BFP 5 at which expression (Osterix) is at the highest level” value worked out at 0.1 µg/mL. The “expression of VEGF, a protein associated with vascularization” value with VEGF is “strong expression”. Moreover, in the experiment on alkaline phosphatase, the “expression of alkaline phosphatase” value is recorded as “strong expression”.
